Reference: patent US9918939B2, “Formulation of Syk inhibitors” (Gilead Connecticut, Inc., priority 2013, dated 2018)
Counter-ions that a name gives are not always drawn.

Assay: Stability studies of dry granulation tablet (HPLC, XRPD)
Format: physicochemical
Settings: intragranular blend, milled granules, final blend of Formulation 1 (FIG. 4)

c1cn2cc(-c3ccc4cn[nH]c4c3)nc(Nc3ccc(N4CCOCC4)cc3)c2n1 [bis-mesylate salt of Formula IA]
form change by XRPD during processing: no form change
